Test results from patent publication US10947242B2, “[1,2,4]triazolo[1,5and#8208;A]pyrimidine compounds as PDE2 inhibitors” (Janssen Pharmaceutica NV, priority 2016, dated 2021).
Read-outs that look alike come from different tables or passages of the source.

Tests used:
Format in all cases: biochemical
[1] = target: T1, Human recombinant PDE10A (hPDE10A) (Homo sapiens, UniProt Q9Y233); assay: In vitro assay PDE10A, human clone (SPA, 3H-cAMP hydrolysis)
T1 construct: His tag (inferred from metal chelate purification); made in house; host or cells: Sf9 insect cells (baculovirus)
Summary of the method: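 Human recombinant PDE10A was expressed in Sf9 cells via baculovirus and incubated with compound in 50 mM Tris pH 7.8, 8.3 mM MgCl2, 1.7 mM EGTA. Substrate was 60 nM cAMP plus 0.008 μCi 3H-cAMP for 60 min at room temperature, read by SPA scintillation counting. Controls used 1% DMSO, and blanks omitted enzyme.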

[2] = target: T2, Human recombinant PDE3A (hPDE3A) (Homo sapiens, UniProt Q14432); assay: In vitro assay PDE3A (SPA, 3H-cAMP hydrolysis); conditions: for IC50: hPDE3B pIC50; for Emax: read-out: hPDE3B Emax, read-out: Emax;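 for Emax: the method names PDE3A and the table heading PDE3B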
T2 construct: purchased Scottish Biomedical; host or cells: Sf9 insect cells
Summary of the method: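 Human PDE3A, cloned from brain, as partially purified Sf9 lysate. Substrate 0.4 μM cAMP plus [3H]-cAMP (2.4 μCi/ml final) in 50 mM Tris pH 7.8, 8.3 mM MgCl2, 1.7 mM EGTA, 60 min at room temperature, 1% DMSO final. Hydrolysis read by SPA scintillation counting against no-enzyme blanks and DMSO controls.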

[3] = target: T3, Human recombinant PDE2A (hPDE2A) (Homo sapiens, UniProt O00408); assay: In vitro assay PDE2A (SPA, 3H-cGMP hydrolysis); conditions: for Emax: read-out: hPDE2A Emax
T3 construct: His tag (inferred from metal chelate purification); made in house; host or cells: Sf9 insect cells (baculovirus)

[4] = human clone (h), default, read-out: hPDE10A2 Emax
[5] = human clone (h), default, read-out: hPDE10A2 pIC50 (converted)
[6] = human clone by default (no (r) mark), read-out: hPDE10A2 or rPDE10A2 Emax
[7] = human clone by default (no (r) mark), read-out: hPDE10A2 or rPDE10A2 pIC50 (converted)
[8] = read-out: hPDE2A pIC50 (converted)
[9] = human clone by default (no (r) mark)

T1 sequence (Q9Y233 267-1055): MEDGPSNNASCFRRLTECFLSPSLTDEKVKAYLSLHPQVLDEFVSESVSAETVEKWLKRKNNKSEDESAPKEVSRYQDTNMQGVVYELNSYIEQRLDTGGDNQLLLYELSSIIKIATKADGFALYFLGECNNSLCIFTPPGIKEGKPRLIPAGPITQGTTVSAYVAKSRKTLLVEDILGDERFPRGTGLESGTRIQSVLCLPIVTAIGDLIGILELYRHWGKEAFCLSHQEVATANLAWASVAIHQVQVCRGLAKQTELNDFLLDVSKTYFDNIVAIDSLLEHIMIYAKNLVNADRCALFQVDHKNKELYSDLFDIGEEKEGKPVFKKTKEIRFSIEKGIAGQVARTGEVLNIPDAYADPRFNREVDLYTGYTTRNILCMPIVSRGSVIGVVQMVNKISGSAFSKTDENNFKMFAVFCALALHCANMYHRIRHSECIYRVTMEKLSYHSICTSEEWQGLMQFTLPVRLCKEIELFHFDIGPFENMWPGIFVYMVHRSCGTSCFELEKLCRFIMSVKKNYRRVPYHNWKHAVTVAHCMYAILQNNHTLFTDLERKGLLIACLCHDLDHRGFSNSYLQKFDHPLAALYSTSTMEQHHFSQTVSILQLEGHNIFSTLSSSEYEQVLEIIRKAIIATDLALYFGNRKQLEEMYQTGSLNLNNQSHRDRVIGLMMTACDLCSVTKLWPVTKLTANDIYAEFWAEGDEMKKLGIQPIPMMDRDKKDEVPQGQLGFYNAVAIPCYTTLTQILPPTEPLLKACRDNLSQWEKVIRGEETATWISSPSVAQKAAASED
T2 sequence (Q14432 whole entry): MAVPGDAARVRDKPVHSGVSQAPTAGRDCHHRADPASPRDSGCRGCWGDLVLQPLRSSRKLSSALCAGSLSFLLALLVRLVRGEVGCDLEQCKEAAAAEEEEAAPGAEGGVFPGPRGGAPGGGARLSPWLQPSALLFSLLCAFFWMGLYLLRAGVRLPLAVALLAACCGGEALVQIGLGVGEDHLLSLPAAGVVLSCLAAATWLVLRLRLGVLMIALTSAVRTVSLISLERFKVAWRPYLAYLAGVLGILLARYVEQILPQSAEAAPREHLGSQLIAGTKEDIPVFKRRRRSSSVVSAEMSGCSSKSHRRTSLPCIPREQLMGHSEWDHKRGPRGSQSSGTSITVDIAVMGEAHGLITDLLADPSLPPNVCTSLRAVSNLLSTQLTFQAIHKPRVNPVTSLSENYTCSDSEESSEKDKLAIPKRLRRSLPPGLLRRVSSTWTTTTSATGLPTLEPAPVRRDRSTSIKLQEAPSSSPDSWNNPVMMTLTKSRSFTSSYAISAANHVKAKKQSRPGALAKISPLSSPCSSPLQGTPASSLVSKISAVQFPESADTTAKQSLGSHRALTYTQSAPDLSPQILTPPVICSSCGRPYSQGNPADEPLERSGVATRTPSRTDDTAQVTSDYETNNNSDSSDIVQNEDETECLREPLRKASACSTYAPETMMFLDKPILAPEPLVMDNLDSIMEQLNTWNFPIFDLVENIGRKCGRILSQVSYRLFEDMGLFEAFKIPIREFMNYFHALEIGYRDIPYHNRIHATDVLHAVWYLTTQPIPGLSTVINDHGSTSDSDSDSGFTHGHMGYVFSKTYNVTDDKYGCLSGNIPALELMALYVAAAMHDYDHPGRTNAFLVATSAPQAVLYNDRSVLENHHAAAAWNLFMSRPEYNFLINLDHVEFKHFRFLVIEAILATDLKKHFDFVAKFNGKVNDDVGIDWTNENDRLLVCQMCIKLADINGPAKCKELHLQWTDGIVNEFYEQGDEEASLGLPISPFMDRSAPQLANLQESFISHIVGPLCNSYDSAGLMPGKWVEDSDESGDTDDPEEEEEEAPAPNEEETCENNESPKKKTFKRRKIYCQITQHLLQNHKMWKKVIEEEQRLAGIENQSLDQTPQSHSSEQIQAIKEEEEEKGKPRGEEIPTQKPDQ
T3 sequence (O00408 whole entry): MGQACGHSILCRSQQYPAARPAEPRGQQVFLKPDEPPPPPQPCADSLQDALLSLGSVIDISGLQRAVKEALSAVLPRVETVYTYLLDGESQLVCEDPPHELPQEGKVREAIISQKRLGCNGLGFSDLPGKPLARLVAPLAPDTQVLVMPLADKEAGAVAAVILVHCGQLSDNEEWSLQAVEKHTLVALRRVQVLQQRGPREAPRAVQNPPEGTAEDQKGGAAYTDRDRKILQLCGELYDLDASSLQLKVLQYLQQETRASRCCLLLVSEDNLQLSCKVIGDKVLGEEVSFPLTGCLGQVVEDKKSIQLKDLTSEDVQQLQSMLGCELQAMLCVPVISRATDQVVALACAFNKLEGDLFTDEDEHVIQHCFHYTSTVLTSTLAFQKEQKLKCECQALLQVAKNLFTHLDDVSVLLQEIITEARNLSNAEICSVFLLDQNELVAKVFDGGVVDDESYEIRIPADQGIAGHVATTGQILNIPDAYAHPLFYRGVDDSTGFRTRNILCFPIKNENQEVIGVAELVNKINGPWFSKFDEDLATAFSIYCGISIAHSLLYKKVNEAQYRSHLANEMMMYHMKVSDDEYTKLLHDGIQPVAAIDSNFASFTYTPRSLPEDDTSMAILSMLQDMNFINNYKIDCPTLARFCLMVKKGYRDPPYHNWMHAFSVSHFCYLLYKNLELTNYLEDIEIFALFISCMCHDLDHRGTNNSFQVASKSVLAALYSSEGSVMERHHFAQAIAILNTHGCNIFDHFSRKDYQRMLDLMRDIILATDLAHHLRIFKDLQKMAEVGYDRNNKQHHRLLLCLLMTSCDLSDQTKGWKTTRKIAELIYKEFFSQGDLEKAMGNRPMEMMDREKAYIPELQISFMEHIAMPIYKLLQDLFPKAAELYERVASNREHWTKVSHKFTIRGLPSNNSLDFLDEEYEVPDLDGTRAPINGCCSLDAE

Row | Emax [1, 4] [%] | IC50 [1, 5] [µM] | IC50 [3, 8] [µM] | SMILES | Emax [1, 6] [%] | IC50 [1, 7] [µM] | IC50 ([2]; read-out: pIC50 (converted)) [µM] | Emax [2] [%] | IC50 ([3]; hPDE2A pIC50) [µM] | Emax [3] [%] | IC50 ([1]; hPDE10A2 or rPDE10A2 pIC50, human clone by default (no (r) mark)) [µM] | IC50 [2] [µM] | hPDE10A2 or rPDE10A2 Emax [1, 9] | hPDE10A2 or rPDE10A2 pIC50 [1, 9] | hPDE3B Emax [2] | hPDE2A Emax [3]
1 | 74 | 2.95 | 0.138 | Cc1oncc1C(=O)N1CC[C@@H](C)[C@H](c2cc(C(F)F)nc3ncnn23)C1 [Compound 260] | 74 | 2.95 | > 10 | 23 |  | 97 |  |  |  |  |  | 
2 | 45 | > 10 | 0.363 | C[C@@H]1CCN(C(=O)c2nccnc2N)C[C@H]1c1cc(C(F)F)nc2ncnn12 [Compound 261] | 45 | > 10 | > 10 | 19 |  | 95 |  |  |  |  |  | 
3 | 74 | 3.24 | 0.155 | C[C@@H]1CCN(C(=O)c2cccnc2F)C[C@H]1c1cc(C(F)F)nc2ncnn12 [Compound 262] | 74 | 3.24 | > 10 | 37 |  | 101 |  |  |  |  |  | 
4 | 64 | 5.13 | 0.129 | Cc1nc(C(F)(F)F)ccc1C(=O)N1CC[C@@H](C)[C@H](c2cc(C(F)F)nc3ncnn23)C1 [Compound 263] | 64 | 5.13 | 4.9 | 65 |  | 99 |  |  |  |  |  | 
5 | 74 | 3.31 | 0.105 | Cc1nc(C)c(C(=O)N2CC[C@@H](C)[C@H](c3cc(C(F)F)nc4ncnn34)C2)s1 [Compound 264] | 74 | 3.31 | 10.5 | 47 |  | 100 |  |  |  |  |  | 
6 | 98 | 0.0372 | 0.0024 | COc1ccc(C(=O)N2CC[C@@H](C)[C@H](c3cc(C(F)F)nc4ncnn34)C2)cc1C#N [Compound 265] | 98 | 0.0372 | 6.31 | 55 |  | 102 |  |  |  |  |  | 
7 | 89 | 2.63 | 0.417 | C[C@@H]1CCN(C(=O)c2cc(C(C)(C)C)nc(C(C)(C)C)c2)C[C@H]1c1cc(C(F)F)nc2ncnn12 [Compound 266] | 89 | 2.63 | 5.37 | 74 |  | 100 |  |  |  |  |  | 
8 | 39 | > 10 | 1.91 | C[C@@H]1CCN(C(=O)c2c(Cl)cncc2Cl)C[C@H]1c1cc(C(F)F)nc2ncnn12 [Compound 268] | 39 | > 10 | > 10 | 13 |  | 82 |  |  |  |  |  | 
9 |  |  | 0.00224 | COc1nc(C2CC2)cc(C(=O)N2CC[C@@H](C)[C@H](c3cc(C(F)F)nc4ncnn34)C2)c1F [Compound 276] | 98 | 0.166 | 1.29 | 93 |  | 100 |  |  |  |  |  | 
10 |  |  | 0.00224 | Cc1nc(C2CC2)cc(C(=O)N2CC[C@@H](C)[C@H](c3cc(C(F)F)nc4ncnn34)C2)c1F [Compound 279] | 96 | 0.316 | 2.82 | 86 |  | 99 |  |  |  |  |  | 
11 |  |  | 0.00269 | COCc1cc(C(=O)N2CC[C@@H](C)[C@H](c3cc(C(F)F)nc4ncnn34)C2)cc(C)n1 [Compound 288] | 93 | 0.417 | > 10 | 44 |  | 101 |  |  |  |  |  | 
12 |  |  | 0.0024 | Cc1cc2ccc(C(=O)N3CC[C@@H](C)[C@H](c4cc(C(F)F)nc5ncnn45)C3)cn2c1 [Compound 289] | 99 | 0.0631 | 0.178 | 98 |  | 100 |  |  |  |  |  | 
13 |  |  |  | Cc1nc2cc(C(=O)N3[C@H]4CC[C@H](c5cc(C(F)F)nc6ncnn56)[C@@H]3CC4)ccc2o1 [Compound 306] | 74 |  |  | 71 | 0.0447 | 100 | 3.63 | 4.47 |  |  |  | 
14 |  |  |  | O=C(c1ccnc2ccccc12)N1[C@H]2CC[C@H](c3cc(C(F)F)nc4ncnn34)[C@@H]1CC2 [Compound 317] |  | > 10 | > 10 | 15 |  | 99 |  |  | 34 |  |  | 
15 |  |  |  | O=C(c1ccnc2ccccc12)N1[C@H]2CC[C@H](c3cc(C(F)F)nc4ncnn34)[C@@H]1CC2 [Compound 318] |  |  |  |  |  |  |  |  | 13 | <5 | 11 | 89
16 |  |  | 0.00389 | C[C@@H]1CCN(C(=O)c2ccc3ccccc3n2)C[C@H]1c1cc(C(F)F)nc2ncnn12 [Compound 323] | 97 | 0.224 | 0.724 | 95 |  | 100 |  |  |  |  |  | 
17 |  |  | 0.00214 | C[C@@H]1CCN(C(=O)c2ccc3cnccc3c2)C[C@H]1c1cc(C(F)F)nc2ncnn12 [Compound 326] | 99 | 0.0603 | 0.257 | 97 |  | 100 |  |  |  |  |  | 

Row | SMILES | Emax [1, 4] [%] | IC50 [1, 5] [µM] | IC50 [3, 8] [µM] | Emax [1, 6] [%] | IC50 [1, 7] [µM] | IC50 ([2]; read-out: pIC50 (converted)) [µM] | Emax [2] [%] | IC50 ([3]; hPDE2A pIC50) [µM] | Emax [3] [%] | IC50 ([1]; hPDE10A2 or rPDE10A2 pIC50, human clone by default (no (r) mark)) [µM] | IC50 [2] [µM] | hPDE10A2 or rPDE10A2 Emax [1, 9] | hPDE10A2 or rPDE10A2 pIC50 [1, 9] | hPDE3B Emax [2] | hPDE2A Emax [3]
18 | C[C@@H]1CCN(C(=O)c2cc(C(C)(C)C)cc(C(C)(C)C)c2)C[C@H]1c1cc(C(F)F)nc2ncnn12 [Compound 259] | 92 | 1.7 |  | 92 | 1.7 | 3.55 | 82 | 0.427 | 99 |  |  |  |  |  | 
19 | Cc1cc(C(=O)N2[C@H]3CC[C@@H]2[C@H](c2cc(C(F)F)nc4ncnn24)CC3)cc(C2CC2)n1 [Compound 274] | 63 | 6.03 | 0.288 | 63 | 6.03 | > 10 | 7 |  | 97 |  |  |  |  |  | 
20 | Cc1cc(C(=O)N2[C@H]3CC[C@@H]2[C@H](c2cc(C(F)F)nc4ncnn24)CC3)cc(C(F)(F)F)n1 [Compound 285] |  |  | 6.92 | 37 | > 10 | > 10 | 21 |  | 65 |  |  |  |  |  | 
21 | Cc1ccc2cc(C(=O)N3[C@H]4CC[C@H](c5cc(C(F)F)nc6ncnn56)[C@@H]3CC4)c(C)nc2c1 [Compound 298] |  |  | 0.0186 | 47 | > 10 | > 10 | 25 |  | 99 |  |  |  |  |  | 
22 | O=C(c1nc2ccccc2o1)N1[C@H]2CC[C@H](c3cc(C(F)F)nc4ncnn34)[C@@H]1CC2 [Compound 304] |  |  | 0.0398 | 45 | > 10 | 9.12 | 48 |  | 100 |  |  |  |  |  | 
23 | Cc1nc2cccc(C(=O)N3[C@H]4CC[C@H](c5cc(C(F)F)nc6ncnn56)[C@@H]3CC4)c2o1 [Compound 305] |  |  | 0.0871 | 57 | 7.08 | > 10 | 7 |  | 100 |  |  |  |  |  | 
24 | O=C(c1cccc2ncccc12)N1[C@H]2CC[C@H](c3cc(C(F)F)nc4ncnn34)[C@@H]1CC2 [Compound 315] |  |  | 0.112 | 47 | 9.77 | > 10 | 20 |  | 98 |  |  |  |  |  | 
25 | O=C(c1cccc2cccnc12)N1[C@H]2CC[C@H](c3cc(C(F)F)nc4ncnn34)[C@@H]1CC2 [Compound 316] |  |  | 0.257 | 14 | > 10 | > 10 | 5 |  | 94 |  |  |  |  |  | 
26 | O=C(c1cccc2ccccc12)N1[C@H]2CC[C@H](c3cc(C(F)F)nc4ncnn34)[C@@H]1CC2 [Compound 320] |  |  | 0.0537 | 62 | 7.08 | > 10 | 47 |  | 100 |  |  |  |  |  | 
27 | COc1cc(C(=O)N2[C@H]3CC[C@H](c4cc(C(F)F)nc5ncnn45)[C@@H]2CC3)ccc1Cl [Compound 336] |  |  | 0.0186 | 87 | 1.91 | 3.24 | 78 |  | 101 |  |  |  |  |  | 
28 | O=C(c1ccc(F)c(F)c1)N1[C@H]2CC[C@H](c3cc(C(F)F)nc4ncnn34)[C@@H]1CC2 [Compound 337] |  |  | 0.166 | 71 | 4.57 | > 10 | 43 |  | 99 |  |  |  |  |  | 
29 | O=C(c1ccc(C(F)(F)F)c(F)c1)N1[C@H]2CC[C@H](c3cc(C(F)F)nc4ncnn34)[C@@H]1CC2 [Compound 338] |  |  | 0.0912 | 70 | 3.09 | 5.5 | 62 |  | 99 |  |  |  |  |  | 
30 | O=C(c1ccc(C(F)(F)F)cc1)N1[C@H]2CC[C@H](c3cc(C(F)F)nc4ncnn34)[C@@H]1CC2 [Compound 340] |  |  | 0.0708 | 72 | 3.31 | 4.27 | 69 |  | 100 |  |  |  |  |  | 
31 | O=C(c1cc(F)cc(F)c1)N1[C@H]2CC[C@H](c3cc(C(F)F)nc4ncnn34)[C@@H]1CC2 [Compound 341] |  |  | 0.141 | 63 | 5.01 | > 10 | 33 |  | 97 |  |  |  |  |  | 
